Laboratory results: patent US12403121B2, “Anticancer rocaglamide derivatives” (priority 2018, dated 2025)

Tests used:
in vivo = test: in vivo; parameters: species or system mice; conditions: mouse
Experimental: Mice were administered with a 5 mg/kg dose of Roc by intravenous (IV) or intraperitoneal injection (IP) or by oral gavage (PO). Blood samples were collected before and at multiple indicated time-points after dosing (n=3). Plasma samples were obtained by centrifugation and stored at −80° C. To measure plasma concentrations of Roc, a sensitive liquid chromatography coupled with tandem mass spectrometry detection (LC/MS-MS) method was developed. The reference compounds Roc (NSC326408) and pipernyl rocaglate (NSC784086) were provided by the NCI Developmental Therapeutics Program with pipernyl rocaglate used as the internal standard for quantitation. Plasma samples were processed by taking 100 μl of plasma and adding 300 μl of methanol containing 0.05 μM of internal standard. The samples were vortexed and centrifuged at 10,000×g for 10 min. The supernatant was collected and evaporated to dryness. Dried samples were reconstituted in 100 μl of 1:1 water:acetonitrile and centrifuges at 10,000×g for 3 min, followed by injecting 10 μl into an HPLC. Compounds of interest were separated on a Kinetex EVO C18 column (150×2.1 mm) with a flow rate of 0.25 ml/min. Mobile phase consisted of 80% ammonium formate buffer (1 g/L) and 20% acetonitrile at the start of the run, and a linear gradient to 10% ammonium formate/90% acetonitrile was applied over 14 min. Roc and the internal standard were identified by MS/MS using a Thema) Vantage TSQ run in positive ion mode. The transitions used were m/z 506 to m/z 352 (Roc) and m/z 570 to m/z 450 (internal standard). […] Samples found to be above 2.5 μM of Roc were reanalyzed after dilution with blank plasma. Absolute recoveries of Roc from plasma were to be >98%. AUC estimations were made manually using the trapezoidal method of integration.
To examine the oral bioavailability, PK studies were conducted to compare mice that had been dosed with Roc at 5 mg/kg via the IV, IP, or PO route, followed by measuring Roc concentrations in blood samples collected at various times post dosing. Two separate studies with three mice at each time point for each route of dosing were conducted. […] Areas under the plasma concentration-time curves (AUC0-7h) produced 245 μM min of exposure in the IV route and 142 μM min of exposure in the PO route. The concentrations of Roc appeared to more slowly decline in the plasma over 24 h (T1/2=2.4 hour) with the PO route compared to those dosed by IV route (T1/2=˜1.5 hour).

[1] = tested on: ST8814-Luc MPNST xenografts; test: Orthotopic ST8814-Luc MPNST cell line-derived xenograft, bioluminescence imaging and IHC; type: in vivo, NSG mice; conditions: 4 weeks
Experimental: All animal work was performed according to the protocols approved by the Institutional Animal Care and Use Committee at Nationwide Children's Hospital. For animal dosing, Roc was formulated in 30% hydroxypropyl-β-cyclodextrin (HPβCD; CTD, Inc.). To generate the orthotopic MPNST CDX model, ST8814-Luc cells were injected into the sciatic nerves of NSG mice (NOD.Cg-Prkdc^scid Il2rg^imlWjl/SzJ; The Jackson Laboratory), followed by bioluminescence imaging (BLI) to monitor tumor growth. Burns and Chang, Methods Mol Biol., 1427:59-72 (2016). Mice bearing established ST8814-Luc tumors, as defined by increasing bioluminescence signals over at least two time points, were randomized into three groups (n=10 mice) and treated with the predetermined maximum tolerated dose (MTD) of Roc at 4 mg/kg by IP or 1.2 mg/kg by oral gavage, or the vehicle HPβCD every other day. Tumor growth was measured weekly by BLI. Following 4 weeks of treatment, tumors were harvested for histological analysis.
Sections from Roc or vehicle-treated MPNST tumors were prepared and stained with hematoxylin and eosin (H&E) or immunostained for p-histone H3(Ser^10) (pH3; ab32107, Abeam) or CC3 (#9664, Cell Signaling) as previously described. Burns et al., Cancer Res., 73:792-803 (2013).
To evaluate the in vivo activity of Roc, the inventors treated NSG mice bearing luciferase-expressing ST8814-Luc tumors implanted in the sciatic nerve with Roc at the predetermined MTD (4 mg/kg by IP or 1.2 mg/kg oral gavage), or IPβCD as the vehicle control every other day.

rhabdomyosarcoma PDX = test: Alveolar rhabdomyosarcoma PDX model (NCH-ARMS-2); type: in vivo, NSG mouse; conditions: 3 mg/kg IP every other day
Source text: To generate PDX models, the Nationwide Children's Hospital Institutional Review Board approved the Human Subjects Protocol for the acquisition of surgically-removed tumor specimens from patients and informed patient consents were obtained. Shortly after resection, fresh tumor tissues with their histological types confirmed by a specialized pathologist were placed in Dulbecco's-modified Eagle (DME) medium (Invitrogen) and brought to the research laboratory. A piece of tumor fragment was implanted subcutaneously on the dorsal right flank area in an eight-to-ten week-old immunodeficient mouse under anesthesia. Tumors were allowed to grow until established, at which time the established PDX tumors were repeatedly passed from one animal to the next or cryopreserved. For Roc treatment, actively-growing PDXs for a Ewing sarcoma (NCH-EWS-2), an osteosarcoma (NCH—OS-7), and an alveolar rhabdomyosarcoma (NCH-ARMS-2) were excised and cut into 5-mm pieces. Each tumor piece was re-implanted into an NSG mouse and tumor growth was monitored. Once noted, the tumor sizes in the axial plane at its greatest dimension (L) and the orthogonal short dimension (S) were measured twice weekly using a Fowler Ultra-Cal Electronic Caliper. Approximated tumor volumes were calculated using the formula V=(L×S^2)/2. […]

[2] = tested on: STS26T and ST8814 MPNST cells; test: Flow cytometry cell cycle analysis; type: cell-based, human; conditions: one- or two-IC50 doses, three days
Experimental: Actively-growing cells were seeded in 96-well plates (Sarstedt) at 2,000 cells/well for Ben-Men-1 and RD cells, 30,000 cells/well for 697 and 697-R cells, and 4,000 cells/well for all other cell lines. The following day, cells were treated with various concentrations of each compound or and 0.05% of DMSO as the control for six days for MG-63 cells or three days for all remaining cell lines. Cell proliferation was assessed using resazurin assays and the IC50 value calculated. Cell cycle analysis was performed accordingly. Burns et al., Cancer Res., 73:792-803 (2013).

[3] = Kinghorn et al. 2016 and NCI Developmental Therapeutics Program study, same conditions; cited from earlier work

COc1ccc([C@@]23Oc4cc(OC)cc(OC)c4[C@]2(O)[C@H](O)[C@H](C(=O)N(C)C)[C@H]3c2ccccc2)cc1 [Roc, rocaglamide]
Area under the plasma concentration-time curve (AUC0-7h) (in vivo; iv, 5 mg/kg): 245 µM·min | half-life (in vivo; iv, 5 mg/kg): ~1.5 h | improvement of oral bioavailability over silvestrol (in vivo; po): > 25 fold | Area under the plasma concentration-time curve (AUC0-7h) (in vivo; po, 5 mg/kg): 142 µM·min | Cmax (in vivo; po, 5 mg/kg): ~800 nM | T1/2 (in vivo; po, 5 mg/kg): 2.4 h | bioavailability (in vivo; po, 5 mg/kg): ~50% | increase of tumor bioluminescence over four weeks ([1]; 1.2 mg/kg PO (oral gavage) every other day, vehicle ~17,000-fold): ~470 fold | reduction in tumor bioluminescence compared to controls ([1]; 1.2 mg/kg oral gavage every other day): > 95% | reduction in tumor luminescence compared to controls ([1]; 4 mg/kg IP every other day): > 99% | phospho-histone H3 labeling in tumors vs vehicle ([1]; IP- or orally-delivered, IHC): much higher prevalence | cleaved caspase-3 positive cells in tumors ([1]; Roc-treated tumors, IHC): increased numbers | reduction of tumor growth (rhabdomyosarcoma PDX): ~70% | G2/M fraction [2]: marked increase in the GVM fraction | pulmonary toxicity in dogs [3]: did not induce the toxicity
